Source: patent publication US11524966B1 (Valo Early Discovery, Inc., priority 2017, dated 2022)

Target: T1, USP28 (His-tagged USP28-FL-mammalian) (Homo sapiens, UniProt Q96RU2)
T1 construct: Expression of USP28 (1-1077)-TEV-6*His (pTT5 vector); made in house; host or cells: Expi293f cells (pTT5 vector)
T1 sequence (Q96RU2 1-1077): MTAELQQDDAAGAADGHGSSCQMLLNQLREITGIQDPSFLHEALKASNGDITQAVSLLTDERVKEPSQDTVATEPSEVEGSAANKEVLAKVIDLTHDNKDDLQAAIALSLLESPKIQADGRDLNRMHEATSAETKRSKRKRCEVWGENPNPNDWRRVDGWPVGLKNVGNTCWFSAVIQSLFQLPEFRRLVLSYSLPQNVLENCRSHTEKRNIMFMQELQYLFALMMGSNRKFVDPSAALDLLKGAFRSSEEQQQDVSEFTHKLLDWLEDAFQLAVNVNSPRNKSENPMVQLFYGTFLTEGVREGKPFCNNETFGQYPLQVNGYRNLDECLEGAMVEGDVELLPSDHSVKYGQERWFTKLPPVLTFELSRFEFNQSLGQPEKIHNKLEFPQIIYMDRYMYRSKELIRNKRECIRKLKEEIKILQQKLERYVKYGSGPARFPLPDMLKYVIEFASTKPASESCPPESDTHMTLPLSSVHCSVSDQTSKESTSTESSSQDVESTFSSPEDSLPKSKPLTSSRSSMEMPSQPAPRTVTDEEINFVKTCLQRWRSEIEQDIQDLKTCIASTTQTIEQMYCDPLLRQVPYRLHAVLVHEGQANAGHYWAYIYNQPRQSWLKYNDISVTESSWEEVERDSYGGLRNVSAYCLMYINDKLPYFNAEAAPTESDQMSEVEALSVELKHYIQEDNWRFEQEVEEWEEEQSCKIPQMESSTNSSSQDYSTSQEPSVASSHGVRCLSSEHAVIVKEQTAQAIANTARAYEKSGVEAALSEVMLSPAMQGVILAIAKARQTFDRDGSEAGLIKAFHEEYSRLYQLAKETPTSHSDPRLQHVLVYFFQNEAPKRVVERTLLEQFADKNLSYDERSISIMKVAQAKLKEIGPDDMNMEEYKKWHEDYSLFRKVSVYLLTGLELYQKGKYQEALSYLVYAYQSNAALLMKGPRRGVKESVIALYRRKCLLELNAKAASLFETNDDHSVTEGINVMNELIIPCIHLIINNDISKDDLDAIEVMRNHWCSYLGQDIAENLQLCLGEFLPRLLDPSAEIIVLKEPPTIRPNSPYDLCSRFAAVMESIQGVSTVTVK
Assay: Ubiquitin-Rhodamine 110 Assay for USP28 Activity, Example A-1(a)
Format: biochemical
Conditions: Ub-Rh110 assay, Example A-1(a); read-out: USP28 A-1(a) IC50 range
Outline: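 Full-length His-tagged human USP28 (1-1077, Expi293f-expressed), […], with 25 nM Ub-Rh110 (<<Km) in pH 8.0 Tris buffer with BME, BGG, Triton X-100. 10-point dilutions (25 μM-1.3 nM), 45 min at room temperature, citric acid stop, fluorescence 485/535 nm; IC50 by 4-parameter fit.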

Cc1ccc2c(N)c(C(=O)N[C@@H]3COc4c(ccc(N5CCNCC5)c4F)C3)sc2n1 [Example 1-34, (S)-3-amino-N-(8-fluoro-7-(piperazin-1-yl)chroman-3-yl)-6-methylthieno[2,3-b]pyridine-2-carboxamide]
IC50: 200 to 2000 nM

Cc1ccc2c(N)c(C(=O)N[C@H]3COc4cc(N5CCNCC5)c(F)cc4C3)sc2n1 [Example 1-35, (R)-3-amino-N-(6-fluoro-7-(piperazin-1-yl)chroman-3-yl)-6-methylthieno[2,3-b]pyridine-2-carboxamide]
IC50: 1 to 50 nM

Cc1ccc2c(N)c(C(=O)N[C@@H]3COc4cc(N5CCNCC5)c(F)cc4C3)sc2n1 [Example 1-36, (S)-3-amino-N-(6-fluoro-7-(piperazin-1-yl)chroman-3-yl)-6-methylthieno[2,3-b]pyridine-2-carboxamide]
IC50: > 2000 nM

Cc1ccc2c(N)c(C(=O)N[C@H]3COc4cc(N5CC6CNCC(C5)C6(F)F)ccc4C3)sc2n1 [Example 2-1, 3-Amino-N-((3R)-7-(9,9-difluoro-3,7-diazabicyclo[3.3.1]nonan-3-yl)chroman-3-yl)-6-methylthieno[2,3-b]pyridine-2-carboxamide]
IC50: 1 to 50 nM

Cc1ccc2c(N)c(C(=O)N[C@H]3COc4cc(N5CC6CC(C5)N6)ccc4C3)sc2n1 [Example 2-2, N-((3R)-7-(3,6-diazabicyclo[3.1.1]heptan-3-yl)chroman-3-yl)-3-amino-6-methylthieno[2,3-b]pyridine-2-carboxamide]
IC50: 1 to 50 nM

Cc1ccc2c(N)c(C(=O)N[C@@H]3COc4cc(N5CC6CC(C5)N6)ccc4C3)sc2n1 [Example 2-3, N-((3S)-7-(3,6-diazabicyclo[3.1.1]heptan-3-yl)chroman-3-yl)-3-amino-6-methylthieno[2,3-b]pyridine-2-carboxamide]
IC50: 200 to 2000 nM

Cc1ccc2c(N)c(C(=O)N[C@H]3COc4cc(N5CCNC[C@@H]5C)ccc4C3)sc2n1 [Example 2-4, 3-amino-6-methyl-N-((R)-7-((S)-2-methylpiperazin-1-yl)chroman-3-yl)thieno[2,3-b]pyridine-2-carboxamide]
IC50: 1 to 50 nM

Cc1ccc2c(N)c(C(=O)N[C@H]3COc4cc(N5CCNC[C@H]5C)ccc4C3)sc2n1 [Example 2-5, 3-amino-6-methyl-N-((R)-7-((R)-2-methylpiperazin-1-yl)chroman-3-yl)thieno[2,3-b]pyridine-2-carboxamide]
IC50: 1 to 50 nM

Cc1ccc2c(N)c(C(=O)N[C@H]3COc4cc(N5C6CCC5CNC6)ccc4C3)sc2n1 [Example 2-6, N-((3R)-7-(3,8-diazabicyclo[3.2.1]octan-8-yl)chroman-3-yl)-3-amino-6-methylthieno[2,3-b]pyridine-2-carboxamide]
IC50: 1 to 50 nM

Cc1ccc2c(N)c(C(=O)N[C@H]3COc4cc(N5CCCC56CNC6)ccc4C3)sc2n1 [Example 2-7, (R)-N-(7-(2,5-diazaspiro[3.4]octan-5-yl)chroman-3-yl)-3-amino-6-methylthieno[2,3-b]pyridine-2-carboxamide]
IC50: 1 to 50 nM

Cc1ccc2c(N)c(C(=O)N[C@H]3COc4cc(N5CCN[C@@H](C)C5)ccc4C3)sc2n1 [Example 2-8, 3-amino-6-methyl-N-((R)-7-((S)-3-methylpiperazin-1-yl)chroman-3-yl)thieno[2,3-b]pyridine-2-carboxamide]
IC50: 1 to 50 nM

Cc1ccc2c(N)c(C(=O)N[C@H]3COc4cc(N5CCN[C@H](C)C5)ccc4C3)sc2n1 [Example 2-9, 3-amino-6-methyl-N-((R)-7-((R)-3-methylpiperazin-1-yl)chroman-3-yl)thieno[2,3-b]pyridine-2-carboxamide]
IC50: 1 to 50 nM

Cc1ccc2c(N)c(C(=O)N[C@H]3COc4cc(N5CCNCC56COC6)ccc4C3)sc2n1 [Example 2-10]
IC50: 1 to 50 nM

Cc1cnc2c(N)c(C(=O)N[C@H]3COc4cc(N5CC6CC(C5)N6)ccc4C3)sc2n1 [Example 2-11, N-((3R)-7-(3,6-diazabicyclo[3.1.1]heptan-3-yl)chroman-3-yl)-7-amino-3-methylthieno[2,3-b]pyrazine-6-carboxamide]
IC50: 1 to 50 nM

Cc1cnc2c(N)c(C(=O)N[C@H]3COc4cc(N5CC6COCC(C5)N6)ccc4C3)sc2n1 [Example 2-12, N-((3R)-7-(3-oxa-7,9-diazabicyclo[3.3.1]nonan-7-yl)chroman-3-yl)-7-amino-3-methylthieno[2,3-b]pyrazine-6-carboxamide]
IC50: 50 to 200 nM

Cc1cnc2c(N)c(C(=O)N[C@H]3COc4cc(N5CC6CNCC(C5)O6)ccc4C3)sc2n1 [Example 2-13, N-((3R)-7-(9-oxa-3,7-diazabicyclo[3.3.1]nonan-3-yl)chroman-3-yl)-7-amino-3-methylthieno[2,3-b]pyrazine-6-carboxamide]
IC50: 1 to 50 nM

Nc1c(C(=O)N[C@H]2COc3cc(N4CC5CC(C4)N5)ccc3C2)sc2nc(F)ccc12 [Example 2-14, N-((3R)-7-(3,6-diazabicyclo[3.1.1]heptan-3-yl)chroman-3-yl)-3-amino-6-fluorothieno[2,3-b]pyridine-2-carboxamide]
IC50: 1 to 50 nM

Cc1nc2sc(C(=O)N[C@H]3COc4cc(N5CC6CC(C5)N6)ccc4C3)c(N)c2cc1F [Example 2-15, N-((3R)-7-(3,6-diazabicyclo[3.1.1]heptan-3-yl)chroman-3-yl)-3-amino-5-fluoro-6-methylthieno[2,3-b]pyridine-2-carboxamide]
IC50: 1 to 50 nM

COc1nc2sc(C(=O)N[C@H]3COc4cc(N5CCNCC5)ccc4C3)c(N)c2cc1F [Example 2-16, (R)-3-amino-5-fluoro-6-methoxy-N-(7-(piperazin-1-yl)chroman-3-yl)thieno[2,3-b]pyridine-2-carboxamide]
IC50: 50 to 200 nM

Cc1cc(C)c2c(N)c(C(=O)N[C@H]3COc4cc(N5CCNCC5)ccc4C3)sc2n1 [Example 2-17, (R)-3-amino-4,6-dimethyl-N-(7-(piperazin-1-yl)chroman-3-yl)thieno[2,3-b]pyridine-2-carboxamide]
IC50: 1 to 50 nM

Cc1cc(C)c2c(N)c(C(=O)N[C@H]3COc4cc(N5CC6CC(C5)N6)ccc4C3)sc2n1 [Example 2-18, N-((3R)-7-(3,6-diazabicyclo[3.1.1]heptan-3-yl)chroman-3-yl)-3-amino-4,6-dimethylthieno[2,3-b]pyridine-2-carboxamide]
IC50: 1 to 50 nM

Cc1cc(C)c2c(N)c(C(=O)N[C@H]3COc4cc(N5CC6CNCC(C5)C6(F)F)ccc4C3)sc2n1 [Example 2-19, 3-amino-N-((3R)-7-(9,9-difluoro-3,7-diazabicyclo[3.3.1]nonan-3-yl)chroman-3-yl)-4,6-dimethylthieno[2,3-b]pyridine-2-carboxamide]
IC50: 1 to 50 nM

Cc1cc(C)c2c(N)c(C(=O)N[C@H]3COc4cc(N5CC6CNCC(C5)O6)ccc4C3)sc2n1 [Example 2-20, N-((3R)-7-(9-oxa-3,7-diazabicyclo[3.3.1]nonan-3-yl)chroman-3-yl)-3-amino-4,6-dimethylthieno[2,3-b]pyridine-2-carboxamide]
IC50: 1 to 50 nM

Cc1cc(C(F)(F)F)c2c(N)c(C(=O)N[C@H]3COc4cc(N5CC6CC(C5)N6)ccc4C3)sc2n1 [Example 2-21]
IC50: 1 to 50 nM

Cc1cc(C(F)(F)F)c2c(N)c(C(=O)N[C@H]3COc4cc(N5CC6CNCC(C5)C6(F)F)ccc4C3)sc2n1 [Example 2-22, 3-amino-N-((3R)-7-(9,9-difluoro-3,7-diazabicyclo[3.3.1]nonan-3-yl)chroman-3-yl)-6-methyl-4-(trifluoromethyl)thieno[2,3-b]pyridine-2-carboxamide]
IC50: 1 to 50 nM

Cc1cc(C(F)(F)F)c2c(N)c(C(=O)N[C@H]3COc4cc(N5CC6CNCC(C5)O6)ccc4C3)sc2n1 [Example 2-23, N-((3R)-7-(9-oxa-3,7-diazabicyclo[3.3.1]nonan-3-yl)chroman-3-yl)-3-amino-6-methyl-4-(trifluoromethyl)thieno[2,3-b]pyridine-2-carboxamide]
IC50: 1 to 50 nM

O=C(N[C@H]1COc2cc(N3CC4CCC(C3)N4)ccc2C1)c1cnc2c(c1)C1(CCN2)CC1 [Example 2-24, N-((3R)-7-(3,8-diazabicyclo[3.2.1]octan-3-yl)chroman-3-yl)-2′,3′-dihydro-1′H-spiro[cyclopropane-1,4′-[1,8]naphthyridine]-6′-carboxamide]
IC50: 50 to 200 nM
